Earlier results, collected in article PMC4052326, “Alterporriol-Type Dimers from the Mangrove Endophytic Fungus, Alternaria sp. (SK11), and Their MptpB Inhibitions” (Marine Drugs, 2014).

Tested on: clinical multidrug-resistant M. tuberculosis strains
Settings: result in words; cited from earlier work

Substance: 4-deoxybostrycin
- inhibition against some clinical multidrug-resistant M. tuberculosis strains: good inhibition
